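Tested at 5 concentrations; 48 h exposure; 96-well plates; endpoints linearly interpolated, else capped at highest concentration. TGI: total growth inhibition.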
What was measured:
Assay in all cases: inhibition of tumour cell growth, NCI panel, 48 h
SF-295 CNS = tested on: SF-295 CNS
NCI-H226 lung = tested on: NCI-H226 lung
HOP-62 NSCLC = tested on: HOP-62 NSCLC
BT-549 breast = tested on: BT-549 breast
SK-MEL-28 melanoma = tested on: SK-MEL-28 melanoma
NCI-H23 lung = tested on: NCI-H23 lung
RPMI-8226 leukemia = tested on: RPMI-8226 leukemia
A498 renal = tested on: A498 renal
M14 melanoma = tested on: M14 melanoma
MDA-MB-435 = tested on: MDA-MB-435
SK-MEL-5 melanoma = tested on: SK-MEL-5 melanoma
HCT-116 colon = tested on: HCT-116 colon
CCRF-CEM leukemia = tested on: CCRF-CEM leukemia
PC-3 prostate = tested on: PC-3 prostate
SK-MEL-2 melanoma = tested on: SK-MEL-2 melanoma
HOP-92 NSCLC = tested on: HOP-92 NSCLC
K-562 leukemia = tested on: K-562 leukemia
TK-10 renal = tested on: TK-10 renal
COLO 205 colon = tested on: COLO 205 colon
UACC-62 melanoma = tested on: UACC-62 melanoma
SR leukemia = tested on: SR leukemia
SF-539 CNS = tested on: SF-539 CNS
NCI/ADR-RES ovarian = tested on: NCI/ADR-RES ovarian
MOLT-4 leukemia = tested on: MOLT-4 leukemia
SF-268 CNS = tested on: SF-268 CNS
NCI-H460 lung = tested on: NCI-H460 lung
IGROV1 ovarian = tested on: IGROV1 ovarian
U251 CNS = tested on: U251 CNS
SW-620 colon = tested on: SW-620 colon
MCF7 breast = tested on: MCF7 breast
OVCAR-4 ovarian = tested on: OVCAR-4 ovarian
KM12 colon = tested on: KM12 colon
OVCAR-5 ovarian = tested on: OVCAR-5 ovarian
UO-31 renal = tested on: UO-31 renal
MDA-MB-231 breast = tested on: MDA-MB-231 breast
RXF 393 renal = tested on: RXF 393 renal
HT29 colon = tested on: HT29 colon
T-47D breast = tested on: T-47D breast
CAKI-1 renal = tested on: CAKI-1 renal
ACHN renal = tested on: ACHN renal
UACC-257 melanoma = tested on: UACC-257 melanoma
SNB-75 CNS = tested on: SNB-75 CNS
MDA-N = tested on: MDA-N
HS 578T breast = tested on: HS 578T breast
EKVX NSCLC = tested on: EKVX NSCLC
SN12C renal = tested on: SN12C renal
SNB-19 CNS = tested on: SNB-19 CNS
OVCAR-3 ovarian = tested on: OVCAR-3 ovarian
A549 NSCLC = tested on: A549 NSCLC
786-0 renal = tested on: 786-0 renal
OVCAR-8 ovarian = tested on: OVCAR-8 ovarian
HCT-15 colon = tested on: HCT-15 colon
HCC-2998 colon = tested on: HCC-2998 colon
SK-OV-3 ovarian = tested on: SK-OV-3 ovarian
LOX IMVI melanoma = tested on: LOX IMVI melanoma
DU-145 prostate = tested on: DU-145 prostate
NCI-H522 lung = tested on: NCI-H522 lung

Measured: TGI

O=C(O)c1ccccn1
not listed: HCC-2998 colon | SK-OV-3 ovarian | LOX IMVI melanoma | DU-145 prostate | NCI-H522 lung
> 100 µM: all other assays above

O=c1oc2cc(O)ccc2c(O)c1C(c1ccccn1)c1c(O)c2ccc(O)cc2oc1=O
not listed: OVCAR-4 ovarian
> 100 µM: all other assays above
